“Also recorded” adds a separate entry of the source.
Columns and labels:
[1] = target: T1, binding of rSdrG(50-597) to Fg (Staphylococcus epidermidis, UniProt Q9KI13); test: ELISA: inhibition of rSdrG(50-597) binding to immobilized Fg by synthetic peptides; set-up: species or system S. epidermidis; settings: for inhibition of rSdrG(50-597) binding to Fg: 50 nM rSdrG(50-597) pre-incubated with peptide 1 h
T1 construct: made in house; host or cells: E. coli Topp3
T1 sequence (Q9KI13 50-597): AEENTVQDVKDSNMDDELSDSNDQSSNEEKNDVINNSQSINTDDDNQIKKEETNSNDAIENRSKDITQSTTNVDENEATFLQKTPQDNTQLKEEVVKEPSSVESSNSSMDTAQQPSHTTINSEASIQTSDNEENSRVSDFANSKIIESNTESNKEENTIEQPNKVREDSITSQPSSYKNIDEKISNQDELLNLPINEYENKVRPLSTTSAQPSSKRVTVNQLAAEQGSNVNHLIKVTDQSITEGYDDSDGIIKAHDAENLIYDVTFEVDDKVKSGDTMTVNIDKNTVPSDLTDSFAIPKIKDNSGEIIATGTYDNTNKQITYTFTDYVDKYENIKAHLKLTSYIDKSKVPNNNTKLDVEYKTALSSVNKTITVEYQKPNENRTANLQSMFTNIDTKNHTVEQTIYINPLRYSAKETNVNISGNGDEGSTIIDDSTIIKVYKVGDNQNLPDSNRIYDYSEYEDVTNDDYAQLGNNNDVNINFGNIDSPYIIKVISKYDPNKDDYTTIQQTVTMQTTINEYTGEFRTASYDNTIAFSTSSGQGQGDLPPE
Description: ELISA—Microtiter plates (Immulon 4, Dynatech Laboratories Inc.) were coated with 1 μg of Fg (Enzyme Research Labs) in PBS, pH 7.5 for 18 h at 4° C. Plates were washed three times with PBS, 0.05% Tween 20 (PBST) and blocked with 1% (w/v) bovine serum albumin (BSA) for 1 h at room temperature. Plates were washed three times with PBST and rSdrG(50-597), diluted into PBS, was added to the wells and the plate was incubated for 1 h at room temperature. Plates were washed three times with PBST and bound rSdrG(50-597) was detected by adding a 1:2000 dilution of an anti-His-tag mAb (Clontech) in PBST, 0.1% BSA. Plates were incubated for 1 h at room temperature and then washed three times with PBST. A 1:2000 dilution of goat anti-mouse alkaline phosphatase (AP)-conjugated polyclonal antibodies (Bio-Rad) in PBST, 0.1% BSA were added to the wells and the plate was incubated for 1 h at room temperature. Plates were washed three times with PBST and developed with p-nitrophenyl phosphate (Sigma) in 1 M diethanolamine, 0.5 mM MgCl2, pH 9.0 at room temperature for ˜30 min. Plates were read at 405 nm using an ELISA plate reader (Thermomax microplate reader, Molecular Devices).
In the inhibition experiments, 50 nM rSdrG(50-597) in PBS was pre-incubated with the indicated amounts of selected peptides for 1 h at room temperature. The sample mixtures were added to the Fg-coated wells and bound rSdrG(50-597) was detected as described above.

rSdrG(50-597) = rSdrG(50-597) (Staphylococcus epidermidis, UniProt Q9KI13); settings: increasing amounts of unlabeled peptide
Description: Fluorescence Polarization—Fluorescence polarization was used to determine the equilibrium dissociation constant (KD) for the interaction of rSdrG(50-597) with peptide β1-25. The peptide was labeled with fluorescein as previously described (18). Increasing concentrations of rSdrG(50-597) in PBS, pH 7.5, were incubated with 10 nM labeled peptide for 3 h in the dark at room temperature. Reactions were allowed to reach equilibrium. Polarization measurements were taken with a Luminescence Spectrometer LS50B (Perkin Elmer) using FL WinLab software (Perkin Elmer). Binding data was analyzed by nonlinear regression used to fit a binding function as defined by the following equation: [formula]
Determination of Equilibrium Dissociation Constants (KD)—An equilibrium dissociation constant (KD) for the interaction of rSdrG(50-597) with the Fg Bβ chain peptide β1-25 was determined.

[2] = in vivo; cited from earlier work

| Substance | inhibition of rSdrG(50-597) binding to Fg [1] | further results |
| --- | --- | --- |
| ADSEGEGDFLAEGGGVR (listed as Staphylococcus epidermidis) [FpA] | essentially inactive |  |
| FSARGHRPLD [β11-20] | essentially inactive |  |
| FSERKDLHQGEGNPREFVENDAKGR [β1-25S] | did not interfere | inhibition of rSdrG(50-597) binding to fluorescein-labeled β1-25 (rSdrG(50-597)): not |
| NEEGFFSA RGHRPLD [β6-20] | Effective inhibition; also recorded: potent inhibitor |  |
| NEEGFFSARGHRPLDKKREE [β6-25] | inhibit the binding of rSdrG(50-597) to Fg in a concentration dependent manner |  |
| QGVNDNEEGFFSAR [FpB] | inhibited the binding of rSdrG(50-597) in a concentration dependent manner; also recorded: poor inhibitory activity | activity relative to peptide β1-25 (fold less active) ([1]; inhibition ELISA, FIG. 4C): at least 10 fold |
| QGVNDNEEGFFSARGHRPLDKK REE [β1-25] | inhibit the binding of rSdrG(50-597) to Fg in a concentration dependent manner | inhibition of rSdrG(50-597) binding to fluorescein-labeled β1-25 (rSdrG(50-597)): inhibited binding |
| heparin |  | major bleeding, patients [2]: 1-33%; thrombocytopenia, patients [2]: 1-5% |

From patent US6835378B2, “Method and compositions for inhibiting thrombin-induced coagulation” (The Texas A&M University System University, priority 2001, dated 2004)
